The values below come from patent publication US20240307220A1, “Combination Therapy to Treat Temperature Sensitive Mutant Tumors” (H. LEE MOFFITT CANCER CENTER AND RESEARCH INSTITUTE INC., priority 2021, published 2024).

One experiment relates to GA10 tumors. The experiment in a line: GA10 subcutaneous tumor xenografts in nude mice treated with CPT with or without hypothermia. In kind it is in vivo. The protocol: FIGS. 7A to 7E show hypothermia cooperates with chemotherapy to induce regression of tumors expressing ts p53. […] CPT (1.5 mg/kg) was given at the beginning of each hypothermia cycle. Average size of tumors was plotted over time (mean±SD). FIG. 7B contains pictures of a GA10 partial response tumor before and after treatment. FIG. 7C is a waterfall plot showing combined results of 3 experiments. Tumors with durable remission are marked as “cured”. FIG. 7D contains individual growth curves of representative GA10 tumors from FIG. 7A that achieved durable remission after treatment. FIG. 7E contains individual growth curves of GA10 tumors from FIG. 7A that relapsed and received re-treatment.
FIGS. 14A to 14D show effect of low-dose CPT treatment alone on tumor growth. […] Tumor growth at 37° C. (without hypothermia treatment) was determined at indicated time points. […] Tumor growth at 37° C. (without hypothermia treatment) was determined at indicated time points. […] When tumors reached approximately 100 mm^3 the mice were injected i.p. with 1.5 mg/kg CPT every 3 days. Tumor growth was monitored over time (mean±SD). […] Average size of tumors was plotted over time.
Animal experiment. Animal experiments were reviewed and approved by the University of South Florida IACUC. Athymic female nude mice (6-week old, Athymic Nude-Foxn1nu, Envigo) were injected subcutaneously with 0.1 ml 1:1 slurry of Matrigel (VWR 47743-715) and 1×10^7 cells in PBS at each site. The inoculated mice were housed in a cabinet set to 28° C. (ARIA BIO-C36 ventilated cabinet, TECNIPLAST) to ensure that tumors develop at ˜37° C. Each mouse received injections at 2 sites, tumors formed at >80% of sites injected with GA10 cells. N^6-cyclohexyladenosine (CHA, Sigma C9901) was dissolved at 20 mg/ml in 25% (2-Hydroxypropyl)-β-cyclodextrin (w/v, Sigma H107) and heated at 65° C. for 10 min to ensure dissolution. Camptothecin (CPT, Santa Cruz Biotechnology sc-200871B) was freshly dissolved in 1 N NaOH, diluted to ˜0.5 mg/ml with saline, and adjusted to pH10 using HCl. To induce hypothermia, 0.2 ml saline+10% glucose containing CHA and CPT was administered by intra peritoneal injection to provide a CHA dosage of 10 mg/kg body weight and CPT (when indicated) dosage of 1.5 mg/kg body weight. The mice were kept in the 28° C. cabinet and monitored using infrared thermal imaging camera (FLIR ONE Pro, FLIR® Systems, Inc.) to verify that body temperature was maintained at ˜32° C. A second injection of CHA (10 mg/kg) in 0.4 ml saline+10% glucose was given after 10 hours to maintain hypothermia for ˜24 hours. A third injection of CHA (10 mg/kg) in 0.4 ml saline+10% glucose was given after 10 hours to maintain hypothermia for ˜32 hours. […]

A further experiment has as its system UC3 bladder cancer cells. The experiment can be described thus: UC3 colony formation after 2 hrs drug treatment, washout and 32° C. or 37° C. incubation. It is filed as cell-based. To be noted: 2 hrs drug at 37° C., washout, 32° C. vs 37° C. 24 hrs, then 7 days at 37° C. How it is done: FIGS. 17A and 17B show hypothermia treatment given after chemotherapy enhances drug response in bladder cancer. […] The washed cells were incubated at 32° C. or 37° C. for 24 hrs, followed by 7 days at 37° C. and crystal violet staining for colony formation.
Standard bladder intravesical chemotherapy involves 1-2 hr irrigation with drugs at 37° C. or 42° C. The effect of treating cells with 32° C. hypothermia after chemotherapy was tested to avoid interference with drug uptake. TS mutant p53 activation peaks 6-8 hrs after shift to 32° C., which should cooperate with chemotherapy-induced DNA damage to induce cell death. […] Saline irrigation of up to 24 hrs is routinely performed after transurethral resection of bladder tumor (TURBT) procedure to prevent clotting. Therefore, irrigation with cooled saline after intravesical chemotherapy is expected to be well-tolerated and safe.

Experiment [1] relates to P53 binding to PUMA promoter. The experiment can be described thus: ChIP of p53 binding to PUMA promoter in H1299 stably expressing p53 mutants. In kind it is cell-based, human. To be noted: 0.5 μM CPT at 32° C. for 20 hrs. The protocol:
FIGS. 1B and 1C show representative p53 ts mutants stably expressed in H1299 cells tested for induction of target gene expression after 20 hrs at 32° C. CPT (0.5 μM for 20 hrs) was added when cells were shifted to 32° C. […] P53 binding to PUMA promoter was determined by ChIP. The results are average of 3 experiments (mean±SD).
Chromatin immunoprecipitation (ChIP). ChIP assay was performed using standard procedure. Crosslinked p53-DNA complexes were immunoprecipitated with DO-1 antibody. Samples were subjected to SYBR Green real-time PCR analysis using forward and reverse primers for the p53 binding sites in the p21 promoter ([…] (SEQ ID NO:7) and […] (SEQ ID NO:8)), and PUMA promoter ([…] (SEQ ID NO:9) and […] (SEQ ID NO:10)).

Take `CC[C@@]1(O)C(=O)OCc2c1cc1n(c2=O)Cc2cc3ccccc3nc2-1` [CPT, Camptothecin]: the “GA10 tumor growth, CPT alone” value with GA10 tumors (1.5 mg/kg CPT i.p., 37° C., no hypothermia) is “modestly inhibited GA10 tumor growth at 37 °C but did not cause shrinkage”. Besides, in the experiment on GA10 tumors (1.5 mg/kg CPT, 37° C. body temperature (p53 inactive)), the “response to CPT, GA10 versus GA10-p53KO tumors” value was “no difference in response to CPT”. Further, in the experiment with GA10 tumors (CPT 1.5 mg/kg, 32° C. hypothermia, 32 hr×5 format), the “GA10 tumor response to hypothermia+CPT combination” value is listed as “significant regression”. Moreover, in the experiment on GA10 tumors (hypothermia+CPT, 32 hr×5 format, 50-day observation period after stopping treatment (12/37)), the “GA10 tumors that did not relapse” value amounted to 32%. The “effect of 32° C. for 24 hrs after drug on growth inhibition (colony formation)” value in the experiment with UC3 bladder cancer cells is “significantly increased the growth inhibition potency”. Moreover, in experiment [1], the “PUMA promoter binding by the ts mutants (ChIP)” value is “further stimulated the binding”.
